For eleven compounds, EC50 results are on record in patent US10370368B2, “Aryl acylsulfonamides as BLT1 antagonists” (Merck Sharp & Dohme Corp., priority 2015, dated 2019).

human BLT1 receptor, sequence (Q15722 whole entry): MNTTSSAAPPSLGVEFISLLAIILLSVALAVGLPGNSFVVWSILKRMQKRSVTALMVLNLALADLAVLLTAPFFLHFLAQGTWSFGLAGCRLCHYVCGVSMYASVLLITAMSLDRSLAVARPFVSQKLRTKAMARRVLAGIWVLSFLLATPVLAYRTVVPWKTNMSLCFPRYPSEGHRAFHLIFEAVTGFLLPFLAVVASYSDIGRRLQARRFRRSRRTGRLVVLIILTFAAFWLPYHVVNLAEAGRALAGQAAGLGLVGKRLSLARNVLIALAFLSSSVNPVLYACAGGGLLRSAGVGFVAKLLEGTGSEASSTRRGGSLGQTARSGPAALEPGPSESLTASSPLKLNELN

The assay concerns the target human BLT1 receptor (Homo sapiens (Human), UniProt Q15722). In words: BLT-1 cAMP Assay. Format: cell-based. The note with it: antagonist mode; HEK293 cells recombinantly expressing human BLT1 receptor; forskolin 4 μM and LTB4 2 nM. The protocol: The ability of compounds to antagonize the human BLT1 receptor was determined using a kit to measure changes in intracellular cyclic AMP levels (cAMP dynamic assay kit, Cisbio Cat. No. 62AM4PEC). HEK293 cells recombinantly expressing human BLT1 receptor, previously frozen in Recovery Medium (Life Technologies, Cat. No. 12648-010) were thawed and diluted into assay medium (HBSS (Hyclone SH 30268.01), 20 mM HEPES (Gibco 15630-106), 800 μM IBMX (Sigma 15879), 0.1% DTPA BSA (Perkin Elmer CR84-100)). The cell suspension was centrifuged at 200×g for 10 min and then resuspended in fresh assay medium to a density of 2.5×10^5 cells/mL. A Labcyte Echo 550 acoustic dispenser was used to transfer 25 nL of test compound dissolved in DMSO into the wells of a dry 384-well plate (Greiner 784075). All subsequent liquid additions were performed using a BIORAPTR (FRD; Beckman Coulter). Next, 5 μL of cell suspension was added and incubated for 20 min. at 37° C. and 5% CO2 in a humidified plastic tray. To test for agonist activity 5 μL of assay buffer containing forskolin (Sigma F-6886. 4 μM for BLT1) was added and incubated for 30 minutes at 37° C. and 5% CO2 in a humidified plastic tray. To test for antagonist activity 5 μL of assay buffer containing forskolin (Sigma F-6886. 4 μM for BLT1) and either LTB4 (Sigma Aldrich L0517; 2 nM BLT1) was added and incubated for 30 minutes at 37° C. and 5% CO2 in a humidified plastic tray.
The levels of cAMP were detected using the CisBio kit following the manufacturer's instructions: cAMP-d2 vial was reconstituted with distilled water and then diluted accordingly with conjugate & lysis buffer. 5 μL of cAMP-d2 working solution was added to all of the wells of the assay plate. cAMP-Cryptate vial was reconstituted with distilled water and then diluted accordingly with conjugate & lysis buffer. 5 μL of cAMP-Cryptate working solution were added to the assay plate. The assay plate was shaken for 3 minutes and incubated at room temperature for 45 minutes, then read on Perkin Elmer Envision. cAMP standard curve and fit data were plotted using a 4 parameter dose response curve fitting algorithm to fit curve. A 4-parameter curve fit (Max, min, log EC50 and slope) was used to transform fluorescent 665 nm/615 nm ratio signal to cAMP concentration. After normalization to treated and untreated controls, the percent effect of signal at each compound concentration was calculated. The plot of percent effect versus the log of compound concentration was fit with a 4-parameter concentration response equation to calculate EC50 values. Compound concentrations tested were 10 000, 3 333, 1 111, 370.4, 123.4, 41.2, 13.7, 4.6, 1.5 and 0.5 nM with 0.25% residual DMSO.
As for `CC(C)(C)S(=O)(=O)NC(=O)c1ccccc1-c1ccc2c(c1)OC[C@@H](Cc1ccc(-c3cncs3)cn1)[C@@H]2O` (single isomer, unassigned) [Example 6, N-(tert-Butylsulfonyl)-2-((3R, 4S or 3S, 4R)-4-hydroxy-3-((5-(thiazol-5-yl)pyridin-2-yl)methyl)chroman-7-yl)benzamide], the EC50 was determined as 128 nM.
The result for `CC1(S(=O)(=O)NC(=O)c2ccccc2-c2ccc3c(c2)OC[C@@H](Cc2ccc(-c4cncs4)cn2)[C@@H]3O)CC1` [Example 1, 2-((Rac-trans)-4-Hydroxy-3-((5-(thiazol-5-yl)pyridin-2-yl)methyl)chroman-7-yl)-N-((1-methylcyclopropyl)sulfonyl)benzamide] reads 6 nM.
The result for `Cc1ncc(-c2ccc(C[C@@H]3COc4cc(-c5ccccc5C(=O)NS(=O)(=O)C5CC5)ccc4[C@H]3O)nc2)s1` (racemic) [Example 9, N-(Cyclopropylsulfonyl)-2-((rac-trans)-4-hydroxy-3-((5-(2-methylthiazol-5-yl)pyridin-2-yl)methyl)chroman-7-yl)benzamide] reads 9 nM.
The result for `Cc1ncc(-c2ccc(C[C@@H]3COc4cc(-c5ccccc5C(=O)NS(=O)(=O)C5CC5)ccc4[C@H]3O)nc2)s1` (single isomer, unassigned) [Example 11, N-(Cyclopropylsulfonyl)-2-((3R,4S or 3S,4R)-4-hydroxy-3-((5-(2-methylthiazol-5-yl)pyridin-2-yl)methyl)chroman-7-yl)benzamide] reads 391 nM.
Take `CC1(S(=O)(=O)NC(=O)c2ccccc2-c2ccc3c(c2)OC[C@@H](Cc2ccc(-c4cncs4)cn2)[C@@H]3O)CC1` (single isomer, unassigned) [Example 3, 2-((3R, 4S or 3S, 4R)-4-Hydroxy-3-((5-(thiazol-5-yl)pyridin-2-yl)methyl)chroman-7-yl)-N-((1-methylcyclopropyl)sulfonyl)benzamide]: the EC50 stood at 78 nM.
The result for `CC1(S(=O)(=O)NC(=O)c2ccccc2-c2ccc3c(c2)OC[C@H](Cc2ccc(-c4cncs4)cn2)[C@H]3O)CC1` (single isomer, unassigned) [Example 2, 2-((3S, 4R or 3R, 4S)-4-Hydroxy-3-((5-(thiazol-5-yl)pyridin-2-yl)methyl)chroman-7-yl)-N-((1-methylcyclopropyl)sulfonyl)benzamide] reads 6 nM; that for `O=C(NS(=O)(=O)C1CC1)c1ccccc1-c1ccc2c(c1)OC[C@@H](Cc1ccc(-c3cncs3)cn1)[C@@H]2O` (racemic) [Example 8, N-(Cyclopropylsulfonyl)-2-((rac-trans)-4-hydroxy-3-((5-(thiazol-5-yl)pyridin-2-yl)methyl)chroman-7-yl)benzamide], 12 nM.
The result for `Cc1ncc(-c2ccc(C[C@H]3COc4cc(-c5ccccc5C(=O)NS(=O)(=O)C5CC5)ccc4[C@@H]3O)nc2)s1` (single isomer, unassigned) [Example 10, N-(Cyclopropylsulfonyl)-2-((3S,4R or 3R,4S)-4-hydroxy-3-((5-(2-methylthiazol-5-yl)pyridin-2-yl)methyl)chroman-7-yl)benzamide] reads 6 nM; that for `CC(C)(C)S(=O)(=O)NC(=O)c1ccccc1-c1ccc2c(c1)OC[C@H](Cc1ccc(-c3cncs3)cn1)[C@H]2O` (single isomer, unassigned) [Example 5, N-(tert-Butylsulfonyl)-2-((3S, 4R or 3R, 4S)-4-hydroxy-3-((5-(thiazol-5-yl)pyridin-2-yl)methyl)chroman-7-yl)benzamide], 5 nM; that for `Cc1ncc(-c2ccc(C[C@@H]3COc4cc(-c5ccccc5C(=O)NS(=O)(=O)C(C)(C)C)ccc4[C@H]3O)nc2)s1` (racemic) [Example 7, N-(tert-Butylsulfonyl)-2-((rac-trans)-4-hydroxy-3-((5-(2-methylthiazol-5-yl)pyridin-2-yl)methyl)chroman-7-yl)benzamide], 5 nM.
The result for `CC(C)(C)S(=O)(=O)NC(=O)c1ccccc1-c1ccc2c(c1)OC[C@@H](Cc1ccc(-c3cncs3)cn1)[C@@H]2O` (racemic) [Example 4, N-(tert-Butylsulfonyl)-2-((rac-trans)-4-hydroxy-3-((5-(thiazol-5-yl)pyridin-2-yl)methyl)chroman-7-yl)benzamide] reads 8 nM.

Broadly, the EC50 is the midpoint of the concentration-response curve.
